Assay results from US11013673B2, “Cosmetic compositions containing quinones and their topical use on skin and hair” (Repairogen Corp, priority 2016, dated 2021).

Legend:
human fibroblasts = experiment: microarray analysis of differential gene expression in fibroblasts; type: cell-based
[1] = tested on: human epidermal keratinocytes; experiment: microarray analysis of differential gene expression in keratinocytes; details: for number of genes downregulated / number of genes upregulated: 24 h
Experimental: (§1) Normal primary adult human keratinocytes derived from a donor were purchased from PromoCell (Heidelberg, Germany) and cultured in keratinocytes growth medium (Epilife+EDGS, Thermo Fisher Scientific, NY, USA). Keratinocytes cultures were maintained at 37° C. with 5% CO2 and ˜95% humidity.
Normal primary human keratinocytes were seeded in 6-well plates and incubated for 24 h. Cells were then washed in PBS (Thermo Fisher Scientific) and reincubated for 24 more hours in the presence of RGN1518 and RGN1538 (each at two different concentrations), vehicle control, or positive control. Following treatment, the cells were washed with PBS, collected and stored frozen at −80° C. before RNA extraction.
RNA was extracted using a Qiagen RNeasy kit (Qiagen, CA, USA) according to manufacturer's protocol.
18 vials containing RNA isolated from human epidermal keratinocytes and 18 vials containing RNA isolated from human fibroblasts were shipped to Thermo Fisher Scientific, Advanced BioMedical Laboratories (Cinnaminson, N.J.) on dry ice for Affymetrix Human Clariom D array processing.
The differential gene expression was obtained using a threshold of 0.05 for statistical significance (p-value) and a log fold change of expression with absolute value of at least 1. Gene expression was further analysed using Differential Expression Analysis and Pathway Analysis iPathwayGuide) by Advaita Bioinformatics Services (Plymouth, Mich.) in the context of pathways obtained from the Kyoto Encyclopedia of Genes and Genomes (KEGG) database (Release 84.0+/10-26, October 17) (Kanehisa et al., 2000; Kanehisa et al., 2002), gene ontologies from the Gene Ontology Consortium database (2017 Nov. 6) (Ashburner et al., 2000; Gene Ontology Consortium, 2001), miRNAs from the miRBase (Release 21) and […] (Targetscan version:Mouse:7.1, Human:7.1) databases (Agarwal et al., 2015; Nam et al., 2014; Griffiths-Jones et al., 2008; Kozomara and Griffiths-Jones, 2014; Friedman et al., 2009; Grimson et al., 2007), and diseases from the KEGG database (Release 84.0+/10-26, October 17) (Kanehisa et al., 2000; Kanehisa et al., 2002). All references are available in the reports for bioinformatics analysis of differential gene expression provided by Advaita Bioinformatics Services at the following link.

[2] = tested on: primary human fibroblasts; experiment: cytotoxicity assay (Cell Titer96 Aqueous One) on fibroblasts; details: 24 h
Experimental: Normal human dermal adult fibroblasts derived from a donor of were purchased from CELLnTec (Bern, Switzerland) and grown in DMEM supplemented with 10% FBS (Life Technologies, CA, USA). Fibroblasts cultures were maintained at 37° C. with 5% CO2 and ˜95% humidity.
(§2) Cytotoxicity was evaluated using the Cell Titer96 Aqueous One (Promega, Wis., USA) basic test according to manufacturer's instructions. Cells were seeded at a density of 10,000 cells/well in a 96-well plate and cultured overnight. Treatments with seven doses of compounds were carried out for 24 hours, in triplicates. Colorimetric analysis was performed using an absorbance of 490 nm. Inhibition of viability of more than 20% of the control values was considered cytotoxic.
The cytotoxicity assay on primary human fibroblasts from adult donor was performed after 24 h of culture in the presence of different concentrations of each compound, as indicated in FIG. 2B and Table 2.

[3] = stability of active ingredient in cosmetic composition; details: 40° C., 50° C., −5° C.; two-, four-, six-, eight-, and 12-week time points
Experimental: Two cosmetic compositions were prepared, one containing lapachol (denoted RGN 1538) and the other containing myrtucommulone C (denoted RGN 1518) as active ingredients, and the stabilities of the active ingredients in these compositions were evaluated.

[4] = tested on: primary human keratinocytes; experiment: cytotoxicity assay (Cell Titer96 Aqueous One) on keratinocytes; type: cell-based; details: 24 h
Experimental: as §1, §2
The cytotoxicity assay on primary human keratinocytes from adult donor was performed after 24 h of culture in the presence of different concentrations of each compound, as indicated in FIG. 2A and Table 1.

[5] = concentration of 50 (unit not given), 24 h
[6] = wound healing gene, fibroblasts, 24 h

Substance: myrtucommulone C
- vascular wound healing, spreading of epidermal cells and vasculature development (gene profile) (human fibroblasts): activation
- number of genes downregulated (human fibroblasts; 25 μM, 24 h, of 24905 genes): 430 genes
- number of genes upregulated (human fibroblasts; 25 μM, 24 h, of 24905 genes): 986 genes
- number of genes downregulated (human fibroblasts; 62 μM, 24 h): 76 genes
- number of genes upregulated (human fibroblasts; 62 μM, 24 h): 53 genes
- gene expression of common skin targets (human fibroblasts; CRELD1, NGF, GLRX2, CSGALNACT2, VEGFA, ITGA2, PPARG, EPGN): upregulated
- number of genes involved in wound healing downregulated (human fibroblasts; at both doses): 24 genes
- number of genes involved in wound healing upregulated (human fibroblasts; at both doses): 28 genes
- hair cycle, hair follicle morphogenesis and development (biological processes) (human fibroblasts; both concentrations): affected
- number of genes downregulated (human fibroblasts; [5]): 468 genes
- number of genes upregulated (human fibroblasts; [5]): 821 genes
- Log Fc ACTB (human fibroblasts; [6]): −1.055
- Log Fc ADAM17 (human fibroblasts; [6]): 1.323
- Log Fc AJUBA (human fibroblasts; [6]): −1.145
- Log Fc CARMIL1 (human fibroblasts; [6]): −1.177
- Log Fc DGKE (human fibroblasts; [6]): 1.432
- Log Fc EDN1 (human fibroblasts; [6]): −1.404
- Log Fc EREG (human fibroblasts; [6]): 2.169
- Log Fc F2RL2 (human fibroblasts; [6]): 1.038
- Log Fc F3 (human fibroblasts; [6]): −1.039
- Log Fc FGF10 (human fibroblasts; [6]): −1.313
- Log Fc FGFR1OP2 (human fibroblasts; [6]): 1.213
- Log Fc GATA6 (human fibroblasts; [6]): −1.081
- Log Fc GSN (human fibroblasts; [6]): −1.041
- Log Fc HBEGF (human fibroblasts; [6]): 1.225
- Log Fc HIST1H3G (human fibroblasts; [6]): −2.339
- Log Fc HIST2H3A (human fibroblasts; [6]): −1.285
- Log Fc HMOX1 (human fibroblasts; [6]): 1.346
- Log Fc IFRD1 (human fibroblasts; [6]): 1.072
- Log Fc IL6 (human fibroblasts; [6]): 2.578
- Log Fc IL24 (human fibroblasts; [6]): 1.179
- Log Fc IRF1 (human fibroblasts; [6]): 1.27
- Log Fc ITGA2 (human fibroblasts; [6]): 2.425
- Log Fc ITGB3 (human fibroblasts; [6]): 2.051
- Log Fc ITPR1 (human fibroblasts; [6]): 1.812
- Log Fc LBH (human fibroblasts; [6]): −1.524
- Log Fc MAFK (human fibroblasts; [6]): 1.267
- Log Fc MERTK (human fibroblasts; [6]): 1.107
- Log Fc MIR199A1 (human fibroblasts; [6]): 2.142
- Log Fc MIR221 (human fibroblasts; [6]): 1.648
- Log Fc MYLK (human fibroblasts; [6]): −1.62
- Log Fc NDNF (human fibroblasts; [6]): 1.132
- Log Fc NOV (human fibroblasts; [6]): −1.524
- Log Fc PDGFD (human fibroblasts; [6]): −1.782
- Log Fc PDPN (human fibroblasts; [6]): 1.265
- Log Fc PLAUR (human fibroblasts; [6]): 1.077
- Log Fc PLET1 (human fibroblasts; [6]): 1.412
- Log Fc PLPP3 (human fibroblasts; [6]): −1.23
- Log Fc RAB27A (human fibroblasts; [6]): 1.228
- Log Fc SMAD3 (human fibroblasts; [6]): −1.102
- Log Fc SYT7 (human fibroblasts; [6]): 1.079
- Log Fc TFPI2 (human fibroblasts; [6]): 2.549
- Log Fc TGFBR2 (human fibroblasts; [6]): −1.067
- Log Fc THBD (human fibroblasts; [6]): 4.119
- Log Fc THBS1 (human fibroblasts; [6]): −1.287
- Log Fc TLN1 (human fibroblasts; [6]): −1.13
- Log Fc TMEFF2 (human fibroblasts; [6]): −1.526
- Log Fc TNFAIP3 (human fibroblasts; [6]): 2.328
- Log Fc TPM1 (human fibroblasts; [6]): −1.209
- Log Fc TRPC6 (human fibroblasts; [6]): −2.444
- Log Fc UBASH3B (human fibroblasts; [6]): 1.546
- Log Fc WNT5A (human fibroblasts; [6]): −1.732
- expression of DNAJB9 [1]: upregulated
- expression of cell cycle genes PKMYT1, MYC [1]: upregulated
- number of genes downregulated ([1]; 1.6 μM): 1196 genes
- number of genes upregulated ([1]; 1.6 μM): 492 genes
- number of genes downregulated ([1]; 3.1 μM, of 24905 genes): 1294 genes
- number of genes upregulated ([1]; 3.1 μM, of 24905 genes): 693 genes
- expression of cell cycle genes ([1]; CDK1, PLK1, RB1, CDC25C, CDC25B, MAD2L1, CDKN2B, CCNA2, MAD1L1, TTK, ZBTB17, RBL1, CCNB1, CCNB2, BUB1, CDC20, PTTG1, BUB1B): downregulated
- expression of genes maintaining structure and activity of the Golgi apparatus ([1]; COG6, ARFGAP3, IFT20, MGAT4): upregulated
- expression of genes important for normal differentiation and function of skin ([1]; FGF2, VEGFA, SERPINB1, CDH4, GDF15): upregulated
- expression of genes involved in Metabolic Pathways ([1]; GK, FA2H, ASS1, ACSS2, HK2, PHGDH, CYP1A1, CSGALNACT2): upregulated
- expression of genes associated with inflammation ([1]; IL1A, IL6, IL1R2, IL1RL1, IL2RG, TSC22D3): upregulated
- expression of genes involved in Metabolic Pathways ([1]; MTHFD1, CYP2J2, RRM2, TYMS): downregulated
- Avg (% of untreated) ([2]; 6.2 μM): 97%
- Avg (% of untreated) ([2]; 12.4 μM): 94%
- Avg (% of untreated) ([2]; 24.8 μM): 90%
- Avg (% of untreated) ([2]; 50 μM): 88%
- Avg (% of untreated) ([2]; 100 μM): 74%
- Avg (% of untreated) ([2]; 200 μM): 72%
- Avg (% of untreated) ([2]; 400 μM): 54%
- concentrations that showed no cytotoxicity ([2]; unit not given): up to 50
- acceptable degradation of active compound (20% or 80% of original) [3]: met this criteria
- Avg (% of untreated) ([4]; 6.2 μM): 80%
- Avg (% of untreated) ([4]; 12.4 μM): 44%
- Avg (% of untreated) ([4]; 24.8 μM): 43%
- Avg (% of untreated) ([4]; 50 μM): 47%
- Avg (% of untreated) ([4]; 100 μM): 43%
- Avg (% of untreated) ([4]; 200 μM): 54%
- Avg (% of untreated) ([4]; 400 μM): 51%
- concentrations that showed no cytotoxicity ([4]; unit not given): up to 6.2
